Source: paper PMC10822168, “Development of potent isoflavone-based formyl peptide receptor 1 (FPR1) antagonists and their effects in gastric cancer cell models” (European journal of medicinal chemistry, 2023)

Assays:
human FPR1 = target: T1, human FPR1 (Homo sapiens, UniProt P21462); assay: Antagonist effect on Ca2+ mobilization in FPR1-HL60 transfected cells; conditions: inhibition of Ca2+ mobilization induced by 5 nM fMLF, N.A. = Not Active; for IC50: read-out: FPR1-HL60 (IC50)
T1 sequence (P21462 1-350): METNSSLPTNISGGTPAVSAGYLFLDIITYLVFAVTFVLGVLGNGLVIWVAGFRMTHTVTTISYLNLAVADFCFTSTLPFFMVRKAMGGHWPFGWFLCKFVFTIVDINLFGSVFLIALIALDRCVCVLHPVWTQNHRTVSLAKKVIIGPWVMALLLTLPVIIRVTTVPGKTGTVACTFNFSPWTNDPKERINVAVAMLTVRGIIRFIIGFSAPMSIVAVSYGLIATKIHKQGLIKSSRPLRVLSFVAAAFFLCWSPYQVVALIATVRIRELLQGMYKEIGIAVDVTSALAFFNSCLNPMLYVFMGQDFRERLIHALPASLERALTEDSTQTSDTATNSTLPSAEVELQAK

in vitro = conditions: rat, pH 7.4

Row | SMILES | IC50 (human FPR1) | remaining at 0.5 h, 10 µM (in vitro; rat liver microsomes) | further results
1 | CCCCCCc1cc2c(=O)c(-c3cccc(OC)c3)c(C(F)(F)F)oc2cc1OC(C)=O [Compound 25b, 6-Hexyl-3-(3-methoxyphenyl)-4-oxo-2-(trifluoromethyl)-4H-chromen-7-yl acetate] | 160 ± 30 nM |  | 
2 | CCCc1cc2c(=O)c(-c3cccc(OC)c3)c(C)oc2cc1OC(C)=O [Compound 26b, 3-(3-Methoxyphenyl)-2-methyl-4-oxo-6-propyl-4H-chromen-7-yl acetate] | 150 ± 50 nM |  | 
3 | CCCCc1cc2c(=O)c(-c3ccccc3OC)c(C)oc2cc1OC(C)=O [Compound 28, 6-Butyl-3-(2-methoxyphenyl)-2-methyl-4-oxo-4H-chromen-7-yl acetate] | 800 ± 300 nM |  | 
4 | CCCCCc1cc2c(=O)c(-c3ccccc3OC)c(C)oc2cc1OC(C)=O [Compound 29, 3-(2-Methoxyphenyl)-2-methyl-4-oxo-6-pentyl-4H-chromen-7-yl acetate] | 400 ± 100 nM |  | 
5 | CCCCCCc1cc2c(=O)c(-c3ccccc3OC)c(C)oc2cc1OCC(F)F [Compound 30, 7-(2,2-Difluoroethoxy)-6-hexyl-3-(2-methoxyphenyl)-2-methyl-4H-chromen-4-one] |  | 18% | 
6 | CCCCCCc1cc2c(=O)c(-c3ccccc3OC)c(C)oc2cc1NC(C)=O [Compound 35a, N-[6-Hexyl-3-(2-methoxyphenyl)-2-methyl-4-oxo-4H-chromen-7-yl]acetamide] |  | 14% | 
7 | CCCc1cc2c(=O)c(-c3ccccc3OC)c(C)oc2cc1NC(C)=O [Compound 36, N-[3-(2-methoxyphenyl)-2-methyl-4-oxo-6-propyl-4H-chromen-7-yl]acetamide] |  | 15% | 
8 | CCCCCCC(=O)Oc1cc2oc(C)c(-c3cccc(OC)c3)c(=O)c2cc1C [Compound 37b, 3-(3-Methoxyphenyl)-2,6-dimethyl-4-oxo-4H-chromen-7-yl heptanoate] | 21900 ± 6500 nM |  | 
9 | CCCc1cc2c(=O)c(-c3ccccc3OC)c(C)oc2cc1OC(=O)N(C)C [Compound 39, 3-(2-Methoxyphenyl)-2-methyl-4-oxo-6-propyl-4H-chromen-7-yl dimethylcarbamate] | 28900 ± 7600 nM |  | FPR1-HL60 (IC50, μM) (human FPR1): practically inactive; remaining at 0.5 h, 10 µM (in vitro; Liver): 10%
